From PubChem BioAssay (NCI)
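1) Cells in 96-well plates. 2) Compound, 48 h, 5 concentrations. 3) Linear interpolation between surrounding doses. 4) Unreached endpoint = highest concentration. GI50 = concentration required for 50% inhibition of growth. TGI: concentration producing complete growth inhibition.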

Assays:
Experiment in all cases: DTP human tumour cell line panel, 48 h
M19-MEL melanoma = tested on: M19-MEL melanoma
CAKI-1 renal = tested on: CAKI-1 renal
OVCAR-3 ovarian = tested on: OVCAR-3 ovarian
HOP-92 NSCLC = tested on: HOP-92 NSCLC
NCI-H522 lung = tested on: NCI-H522 lung
MDA-MB-231 breast = tested on: MDA-MB-231 breast
IGROV1 ovarian = tested on: IGROV1 ovarian
RPMI-8226 leukemia = tested on: RPMI-8226 leukemia
OVCAR-4 ovarian = tested on: OVCAR-4 ovarian
MDA-N = tested on: MDA-N

Row | SMILES | TGI (M19-MEL melanoma) [µM] | TGI (CAKI-1 renal) [µM] | TGI (OVCAR-3 ovarian) [µM] | TGI (HOP-92 NSCLC) [µM] | TGI (NCI-H522 lung) [µM] | TGI (MDA-MB-231 breast) [µM] | TGI (IGROV1 ovarian) [µM] | TGI (RPMI-8226 leukemia) [µM] | TGI (OVCAR-4 ovarian) [µM] | TGI (MDA-N) [µM] | GI50 (M19-MEL melanoma) [µM] | GI50 (OVCAR-3 ovarian) [µM] | GI50 (HOP-92 NSCLC) [µM] | GI50 (NCI-H522 lung) [µM] | GI50 (MDA-MB-231 breast) [µM] | GI50 (OVCAR-4 ovarian) [µM]
1 | Cc1cc(NC(=O)NC(=O)c2ccccc2NC(=O)CN(C)C)ccc1Oc1ncc(Br)cn1 | > 100 | 64.3 | 13.1 | > 100 | 10.3 | > 78.1 | > 100 | > 100 | > 100 | 0.505 |  |  |  |  |  | 
2 | C/C(CCN(C)C)=N/O | 23 | 24.2 | 2.04 | 25.5 | 2.55 |  | 39.2 | 11.4 |  |  |  |  |  |  |  | 
3 | CC1CC(c2ccccc2)=Nc2ccccc2S1 (stereo unspecified) | > 100 | > 100 |  | > 100 | > 100 |  | > 100 | > 100 | > 100 |  |  |  |  |  |  | 
4 | COCc1cc2c(s1)C(=O)C1=C(C2=O)C2(C=C(Br)C(=O)C(Br)=C2)CCN1 | 2.77 | 34.6 | 11.8 | 15.1 | 7.31 | 15.2 | 19.3 | 19.8 | 3.57 | 3.11 |  |  |  |  |  | 
5 | COc1c(OC2OC(CO)C(O)C(O)C2O)cc2c(c1OC)-c1ccc(OC)c(=O)cc1C(NC(C)=O)CC2 (stereo unspecified) | > 100 | > 100 | > 100 | > 100 | > 100 |  | > 100 | > 100 | > 100 |  |  |  |  |  |  | 
6 | Cc1ccc(NC(=O)CC/C(CC(=O)C(C)(C)C)=N/NC(=O)c2cc3ccccc3cc2O)cc1C | > 100 | > 100 | > 100 | > 100 |  |  | > 100 |  | > 100 |  |  |  |  |  |  | 
7 | CN(Cc1cnc2nc(N)nc(N)c2n1)c1ccc(C(=O)NC(CCC(=O)O)C(=O)O)c2ccccc12 (stereo unspecified) |  | > 1000 |  | > 1000 | 7.12 | > 1000 | > 1000 | > 1000 | > 1000 | > 1000 | 0.0725 | 32.9 | > 1000 | 0.0826 | > 1000 | > 1000
8 | O=C(O)C1CCC(=O)N1C(=O)COc1cc(Cl)c(Cl)cc1Cl (stereo unspecified) | > 100 | > 100 | > 100 | > 100 | > 100 |  | > 100 |  | > 100 |  |  |  |  |  |  | 
9 | COCOC1CCCC[C@@]1(OCCOCCO[C@@]1(c2ccccc2)CCCC[C@H]1OCOC)c1ccccc1 (stereo partly specified) | > 100 | > 100 | > 100 |  | > 100 |  | > 100 | > 100 | > 100 |  |  |  |  |  |  | 
10 | CN1C(c2ccccc2)CC(O)CC1c1ccccc1 (stereo unspecified) | > 100 | > 100 | > 100 | > 100 | > 100 |  | > 100 | > 100 | > 100 |  |  |  |  |  |  | 
11 | COc1ccc(/C(C=O)=C(\Cl)c2ccc(OC)c(OC)c2)cc1 | > 100 | > 100 | > 100 |  | 33.5 |  | > 100 | > 100 | > 100 |  |  |  |  |  |  | 
